This is an account of results in ChEMBL document CHEMBL1201862, “PubChem BioAssay data set” (2004).

Calls of active or inactive are those of the source. Unless noted, the rule behind the calls is not given here.

Experiment [1] in a line: viability of HCT116 lacking mutant beta-catenin – cell-based, human colon tumor, dose response (AID 1045).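 Also: HCT116 colon tumor cells with beta catenin knocked out; cells exposed to compound for 60 hours.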 The class given is functional.
The nature of experiment [2]: viability of PTEN-deleted HCT116 cells – cell-based, HCT116 PTEN knockout, dose response (AID 1047).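 Also: HCT116 colon tumor cells with PTEN knocked out; cells exposed to compound for 60 hours before readout; potency for loss of cell viability measured by luminescence.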 In kind it is functional.
Experiment [3] addresses DNA repair and recombination protein RAD54-like (Homo sapiens, UniProt Q92698). Kind of experiment: RAD54 Holliday junction migration blockers – biochemical, fluorescence, cherry-picked samples, dose series, confirmation (AID 651657). The class given is functional.
Experiment [4] addresses Cytochrome P450 3A4 (Homo sapiens, UniProt P08684).
Experiment [5] deals with Platelet-activating factor acetylhydrolase (Mus musculus, UniProt Q60963). Kind of experiment: Late stage assay provider results from the probe development effort to identify inhibitors of pPAFAH: fluorescence-based dose-response biochemical gel-based competitive Activity-Based Protein Profiling (ABPP) assay for SAR compounds. The class given is functional.
For experiment [6], the target named is T1, Low molecular weight phosphotyrosine protein phosphatase (Homo sapiens, UniProt P24666).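 Also: Dose-response confirmation assay measuring inhibition of LMPTP enzyme activity by fluorescence intensity read-out.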
T1 sequence (P24666 whole entry): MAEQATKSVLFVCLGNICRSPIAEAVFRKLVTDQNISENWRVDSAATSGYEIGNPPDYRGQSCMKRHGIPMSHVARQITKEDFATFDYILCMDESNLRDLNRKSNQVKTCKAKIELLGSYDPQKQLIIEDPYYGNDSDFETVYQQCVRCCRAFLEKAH
In kind it is functional. The following applies: read-out: IC50_Mean.

The target in experiment [7] is T2, Interleukin-8 (Homo sapiens, UniProt P10145).
T2 sequence (P10145 whole entry): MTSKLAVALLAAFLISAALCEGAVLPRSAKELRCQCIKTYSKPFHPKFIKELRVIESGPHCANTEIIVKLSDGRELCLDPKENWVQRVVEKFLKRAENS
Kind of experiment: Dose Response confirmation of uHTS small molecule hits for cystic fibrosis induced NFkb Inhibitors in a PAF-induced IL8 counterscreen. In kind it is functional. The following applies: read-out: IC50_Mean.

Experiment [8] deals with HEK293. Kind of experiment: EBV LMP1 TES2 canonical NF-kB signalling blockers – cell-based, HEK293, luciferase, cherry-pick, dose response (AID 588343). The class given is functional, Homo sapiens. The following applies: Homo sapiens, HEK293.
For experiment [9], the target named is T2, Interleukin-8. Kind of experiment: Dose Response confirmation of uHTS small molecule hits for cystic fibrosis induced NFkb Inhibitors in a TNFa-induced IL8 counterscreen. The class given is functional. The following applies: read-out: IC50_Mean.
In experiment [10] the target is T3, Protein RecA (Mycobacterium tuberculosis, UniProt P9WHJ3).
T3 sequence (P9WHJ3 whole entry): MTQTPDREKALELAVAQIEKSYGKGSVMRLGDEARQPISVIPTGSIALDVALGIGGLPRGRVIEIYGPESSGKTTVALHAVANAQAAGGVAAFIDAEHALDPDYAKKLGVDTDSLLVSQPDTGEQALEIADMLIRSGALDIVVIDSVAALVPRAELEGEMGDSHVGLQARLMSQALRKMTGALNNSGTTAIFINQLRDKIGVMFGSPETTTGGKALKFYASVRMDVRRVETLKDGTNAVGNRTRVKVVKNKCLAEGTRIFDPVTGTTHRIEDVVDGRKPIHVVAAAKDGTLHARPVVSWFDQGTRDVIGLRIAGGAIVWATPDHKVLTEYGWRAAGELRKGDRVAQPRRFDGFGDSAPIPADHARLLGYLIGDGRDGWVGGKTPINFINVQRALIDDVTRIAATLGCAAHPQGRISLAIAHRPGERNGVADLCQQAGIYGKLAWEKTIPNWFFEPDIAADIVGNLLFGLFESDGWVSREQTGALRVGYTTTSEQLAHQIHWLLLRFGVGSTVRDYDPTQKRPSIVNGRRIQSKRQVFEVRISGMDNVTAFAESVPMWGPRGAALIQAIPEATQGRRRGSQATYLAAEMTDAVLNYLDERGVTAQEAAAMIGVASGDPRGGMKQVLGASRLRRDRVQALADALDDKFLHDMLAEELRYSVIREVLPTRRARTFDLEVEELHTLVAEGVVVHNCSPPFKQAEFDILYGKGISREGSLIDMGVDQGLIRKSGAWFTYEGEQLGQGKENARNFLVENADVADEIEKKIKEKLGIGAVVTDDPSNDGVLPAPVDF
Kind of experiment: Fluorescence Cell-Free Homogeneous Dose Retest to Identify Inhibitors of RecA-Intein Splicing Activity. [Related pubchem assays (depositor defined):AID2097, AID2223, AID489010, AID492950]. In kind it is functional.

Experiment [11] has as its target T4, Replicative DNA helicase DnaB (Mycobacterium tuberculosis, UniProt P9WMR3).
T4 sequence (P9WMR3 whole entry): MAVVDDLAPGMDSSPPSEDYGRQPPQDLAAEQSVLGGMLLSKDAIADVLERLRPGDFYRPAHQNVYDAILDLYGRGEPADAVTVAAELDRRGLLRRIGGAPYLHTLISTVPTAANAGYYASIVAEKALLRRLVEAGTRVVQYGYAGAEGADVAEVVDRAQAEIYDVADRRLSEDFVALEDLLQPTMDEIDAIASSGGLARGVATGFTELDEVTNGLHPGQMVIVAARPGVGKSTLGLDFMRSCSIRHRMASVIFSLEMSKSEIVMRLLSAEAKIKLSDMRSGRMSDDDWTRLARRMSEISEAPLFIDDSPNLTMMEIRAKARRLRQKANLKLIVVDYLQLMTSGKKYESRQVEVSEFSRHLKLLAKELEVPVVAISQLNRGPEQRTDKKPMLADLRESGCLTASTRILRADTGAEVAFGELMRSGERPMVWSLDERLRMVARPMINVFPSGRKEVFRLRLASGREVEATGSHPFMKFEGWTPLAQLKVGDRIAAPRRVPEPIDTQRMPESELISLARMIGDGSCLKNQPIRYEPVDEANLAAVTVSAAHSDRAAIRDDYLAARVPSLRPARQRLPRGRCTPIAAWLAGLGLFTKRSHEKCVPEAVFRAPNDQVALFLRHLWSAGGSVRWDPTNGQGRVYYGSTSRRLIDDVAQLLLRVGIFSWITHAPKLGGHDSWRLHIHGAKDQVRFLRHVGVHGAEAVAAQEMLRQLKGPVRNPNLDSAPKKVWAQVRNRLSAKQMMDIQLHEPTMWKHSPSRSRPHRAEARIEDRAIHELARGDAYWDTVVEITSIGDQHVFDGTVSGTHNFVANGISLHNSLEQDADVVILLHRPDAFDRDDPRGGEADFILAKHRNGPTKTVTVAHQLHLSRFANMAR
Briefly: DnaB intein splicing inhibitors, dose response, biochemical, cell-free fluorescence (AID 449749). In kind it is functional.

For experiment [12], the target named is Nonstructural protein 1 (Influenza A virus, UniProt Q194T2). In kind it is functional, Influenza A virus (A/California/07/2009(H1N1)).
The target of experiment [13] is Apoptotic protease-activating factor 1 (Homo sapiens, UniProt O14727). The class given is functional.
Experiment [14] addresses ADP-ribosylation factor GTPase-activating protein 1 (Rattus norvegicus, UniProt Q62848). Kind of experiment: Fluorescence polarization-based biochemical high throughput dose response screening assay to identify inhibitors of ADP-ribosylation factor GTPase activating protein 1 (ARFGAP1). The class given is functional.
The nature of experiment [15]: anti-trypanosomal activity in BESM host cells – imaging, CA-I/72 strain, bovine embryo skeletal muscle, dry powder, dose response (AID 651885). The class given is functional, cell-based.
A short description of experiment [16]: L6 myocyte viability loss – cell-based, plate reader, cherry-pick, cytotoxicity control, dose response (AID 651896). In kind it is functional.
Experiment [17] is described as follows: intracellular Trypanosoma cruzi inhibitors in host cells – cell-based, plate reader, cherry-pick samples, set 3, dose response (AID 651818).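 Also: compounds incubated with infected cells for about four days.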 In kind it is functional.
Experiment [18] is described as follows: African trypanosome bloodstream form growth inhibition – STIB900 strain, plate reader, cherry pick, dose response (AID 651893). The following applies: Trypanosoma brucei. In kind it is functional, cell-based, Trypanosoma brucei rhodesiense.
Experiment [19] in a line: Inhibition of T. cruzi Tulahuen strain amastigotes in L-6 muscle cells Measured in Cell-Based and Microorganism Combination System Using Plate Reader - 2138-03_Inhibitor_Dose_CherryPick_Activity. The class given is functional. Particulars: Rattus norvegicus, L6.
Experiment [20] in a line: Inhibition of Plasmodium falciparum NF54 Measured in Cell-Based System Using Plate Reader - 2138-11_Inhibitor_Dose_CherryPick_Activity. The class given is functional.
Experiment [21] is described as follows: antileishmanial activity on axenic amastigotes – plate reader, cherry pick, dose response (AID 651891). The class given is functional, cell-based. Particulars: Leishmania donovani.

Chain of Platelet-activating factor acetylhydrolase (Q60963 whole entry): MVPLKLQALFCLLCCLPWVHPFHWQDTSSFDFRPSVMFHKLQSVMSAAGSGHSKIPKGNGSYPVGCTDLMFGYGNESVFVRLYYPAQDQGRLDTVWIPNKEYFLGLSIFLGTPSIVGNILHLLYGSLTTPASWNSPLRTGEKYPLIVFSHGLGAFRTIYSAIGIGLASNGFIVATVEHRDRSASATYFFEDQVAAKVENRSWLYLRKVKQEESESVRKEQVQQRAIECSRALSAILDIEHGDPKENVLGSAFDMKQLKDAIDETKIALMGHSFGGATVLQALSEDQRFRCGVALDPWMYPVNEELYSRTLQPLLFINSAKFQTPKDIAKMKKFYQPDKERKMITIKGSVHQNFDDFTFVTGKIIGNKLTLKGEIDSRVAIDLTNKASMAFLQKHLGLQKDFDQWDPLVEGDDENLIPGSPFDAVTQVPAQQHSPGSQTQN
Chain of Cytochrome P450 3A4 (P08684 whole entry): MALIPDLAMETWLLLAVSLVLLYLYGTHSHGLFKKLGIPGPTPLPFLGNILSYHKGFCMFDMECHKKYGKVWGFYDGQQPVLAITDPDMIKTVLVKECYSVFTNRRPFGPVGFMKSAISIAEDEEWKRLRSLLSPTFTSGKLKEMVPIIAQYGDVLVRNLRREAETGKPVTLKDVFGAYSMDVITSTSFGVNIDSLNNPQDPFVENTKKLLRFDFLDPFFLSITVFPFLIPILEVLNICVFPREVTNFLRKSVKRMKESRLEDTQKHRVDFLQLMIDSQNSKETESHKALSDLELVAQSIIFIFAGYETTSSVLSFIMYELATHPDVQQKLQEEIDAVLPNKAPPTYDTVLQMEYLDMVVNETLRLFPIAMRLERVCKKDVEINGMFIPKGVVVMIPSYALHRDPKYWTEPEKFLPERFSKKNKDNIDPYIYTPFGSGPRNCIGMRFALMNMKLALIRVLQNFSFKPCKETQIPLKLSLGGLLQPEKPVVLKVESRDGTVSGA
Chain of Nonstructural protein 1 (Q194T2 whole entry): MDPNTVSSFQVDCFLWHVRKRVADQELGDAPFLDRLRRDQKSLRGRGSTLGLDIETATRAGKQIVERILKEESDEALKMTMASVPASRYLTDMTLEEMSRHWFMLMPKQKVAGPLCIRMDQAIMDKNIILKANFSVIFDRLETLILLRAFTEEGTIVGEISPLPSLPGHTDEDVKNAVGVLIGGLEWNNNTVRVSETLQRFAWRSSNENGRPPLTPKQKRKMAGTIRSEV
Chain of ADP-ribosylation factor GTPase-activating protein 1 (Q62848 whole entry): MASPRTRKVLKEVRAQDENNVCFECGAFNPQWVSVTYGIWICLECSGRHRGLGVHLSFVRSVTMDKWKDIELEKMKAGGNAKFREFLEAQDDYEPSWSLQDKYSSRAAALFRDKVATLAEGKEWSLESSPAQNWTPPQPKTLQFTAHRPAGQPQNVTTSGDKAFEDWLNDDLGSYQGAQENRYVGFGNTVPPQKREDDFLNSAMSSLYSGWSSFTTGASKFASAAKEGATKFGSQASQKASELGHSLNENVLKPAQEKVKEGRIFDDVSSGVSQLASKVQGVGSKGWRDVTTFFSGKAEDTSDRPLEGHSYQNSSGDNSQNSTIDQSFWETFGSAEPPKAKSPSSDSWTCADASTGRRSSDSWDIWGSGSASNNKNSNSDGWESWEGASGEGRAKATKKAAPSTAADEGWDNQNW
Chain of Apoptotic protease-activating factor 1 (O14727 whole entry): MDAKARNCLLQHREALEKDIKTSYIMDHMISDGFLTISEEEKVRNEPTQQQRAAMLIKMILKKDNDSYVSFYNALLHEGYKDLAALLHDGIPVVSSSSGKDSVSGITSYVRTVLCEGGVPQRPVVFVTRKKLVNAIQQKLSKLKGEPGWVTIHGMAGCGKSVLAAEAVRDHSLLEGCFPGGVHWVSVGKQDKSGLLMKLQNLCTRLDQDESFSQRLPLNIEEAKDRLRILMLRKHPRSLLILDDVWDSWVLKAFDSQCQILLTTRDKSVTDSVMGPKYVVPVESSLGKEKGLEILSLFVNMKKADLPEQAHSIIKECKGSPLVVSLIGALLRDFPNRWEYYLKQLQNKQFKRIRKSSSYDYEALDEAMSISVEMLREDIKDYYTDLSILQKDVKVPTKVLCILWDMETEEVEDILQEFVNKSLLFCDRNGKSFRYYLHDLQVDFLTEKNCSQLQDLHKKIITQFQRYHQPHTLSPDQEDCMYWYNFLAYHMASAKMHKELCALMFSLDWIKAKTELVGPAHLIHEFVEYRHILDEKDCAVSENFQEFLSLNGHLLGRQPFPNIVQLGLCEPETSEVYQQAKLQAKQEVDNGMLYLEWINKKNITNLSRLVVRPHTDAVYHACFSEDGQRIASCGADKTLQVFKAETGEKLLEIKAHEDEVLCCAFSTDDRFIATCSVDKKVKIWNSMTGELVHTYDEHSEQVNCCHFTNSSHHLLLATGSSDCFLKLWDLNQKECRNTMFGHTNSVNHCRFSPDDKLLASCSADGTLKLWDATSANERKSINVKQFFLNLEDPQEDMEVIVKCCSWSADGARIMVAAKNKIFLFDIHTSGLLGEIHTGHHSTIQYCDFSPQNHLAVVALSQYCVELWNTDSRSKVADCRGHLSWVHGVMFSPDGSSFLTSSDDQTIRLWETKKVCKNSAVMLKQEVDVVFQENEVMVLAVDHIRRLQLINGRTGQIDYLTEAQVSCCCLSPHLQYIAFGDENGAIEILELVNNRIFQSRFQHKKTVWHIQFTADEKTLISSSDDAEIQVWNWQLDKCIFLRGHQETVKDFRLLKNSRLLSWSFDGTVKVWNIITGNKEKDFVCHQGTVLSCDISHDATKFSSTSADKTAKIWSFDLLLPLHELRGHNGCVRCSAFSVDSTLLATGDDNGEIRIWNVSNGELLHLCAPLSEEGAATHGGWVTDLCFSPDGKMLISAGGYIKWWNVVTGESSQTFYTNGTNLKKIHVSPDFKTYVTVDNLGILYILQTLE
Chain of DNA repair and recombination protein RAD54-like (Q92698 whole entry): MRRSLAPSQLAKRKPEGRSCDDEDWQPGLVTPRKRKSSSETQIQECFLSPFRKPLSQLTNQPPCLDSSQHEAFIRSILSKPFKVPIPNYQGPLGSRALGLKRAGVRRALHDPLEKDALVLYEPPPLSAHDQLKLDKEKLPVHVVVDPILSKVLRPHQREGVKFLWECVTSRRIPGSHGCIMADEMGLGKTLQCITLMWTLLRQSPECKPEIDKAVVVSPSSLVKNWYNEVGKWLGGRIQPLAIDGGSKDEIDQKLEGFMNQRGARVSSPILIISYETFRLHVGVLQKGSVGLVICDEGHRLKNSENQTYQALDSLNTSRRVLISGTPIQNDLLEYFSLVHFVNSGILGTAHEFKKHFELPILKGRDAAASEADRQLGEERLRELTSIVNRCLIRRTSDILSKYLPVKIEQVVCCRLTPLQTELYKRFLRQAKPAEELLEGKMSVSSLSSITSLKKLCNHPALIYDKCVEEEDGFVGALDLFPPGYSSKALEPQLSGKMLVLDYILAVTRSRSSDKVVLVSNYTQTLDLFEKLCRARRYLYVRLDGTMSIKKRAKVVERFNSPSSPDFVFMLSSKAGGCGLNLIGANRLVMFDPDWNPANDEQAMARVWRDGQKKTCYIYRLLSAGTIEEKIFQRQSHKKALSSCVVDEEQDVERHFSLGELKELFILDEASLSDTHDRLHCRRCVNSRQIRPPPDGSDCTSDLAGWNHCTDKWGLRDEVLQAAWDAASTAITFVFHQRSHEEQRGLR

As to `CCOc1ccc2nc(C)cc(Nc3ccc4c(c3)OCCO4)c2c1`, the figures for the EC50 in experiment [1] and in [2] were 11.3 µM (active) and 14.7 µM (active), respectively. For the same molecule, the figures for the AC50 in experiment [3] and in [4] were 25 µM (active) and 25.1 µM (inconclusive), respectively.
`Cc1cc(N2CCN(C(=O)Oc3ccc([N+](=O)[O-])cc3)CC2)c2ccccc2n1`: the IC50 is 0.179 µM (active) in [5] and 25.4 µM (inactive) in [6].
Consider `COc1ccccc1[C@]1(C)ON(c2ccccc2C(F)(F)F)C1=O`, for which the IC50 in experiment [7] was 8 µM (active); in experiment [9], 24.3 µM (active). Also, in experiment [8], the AC50 was 7.34 µM (active).
`Cc1nn(-c2ccccc2)c(O)c1/C=N/NC(=O)c1ccc(O)cc1O`: in experiment [10], the concentration for a half-maximal effect (EC50) was 3.13 µM (active). The AC50 in experiment [11] is 2.5 µM (active). The IC50 is 3.09 µM (active) in [12] and 5.15 µM (active) in experiment [13].
Regarding `COc1ccc(-n2c(=O)c3c4c(sc3n3cnnc23)CC(C)CC4)cc1` (stereo unspecified), in [14], the IC50 is 23.1 µM (inactive).
With `C[C@H]1CN([C@@H](C)CO)C(=O)c2cccc(NC(=O)c3ccncc3)c2O[C@@H]1CN(C)Cc1ccc(-c2ccccc2)cc1`, the IC50 in experiment [15] was 10 µM (inconclusive); in experiment [16] it was 17.5 µM (active); in [18], 6.41 µM (inactive); in experiment [19] it was 1.14 µM (active); in experiment [20], 1.14 µM (active); in [21], 6.47 µM (inactive). In experiment [17], the half-maximal activity concentration (AC50) was 0.075 µM (active).

In general, EC50 refers to the concentration needed to bring the measured effect to its halfway point. In general, AC50 refers to the concentration giving half of the maximal activity seen.
